The nature of data set [1]: Log P / Log D value was determined. The format is physicochemical. Particulars: octanol/water.
Data set [2] can be described thus: Partition coefficient (logP). The format is physicochemical. Particulars: octanol/water.
Data set [3] is described as follows: Log D value at pH 7.4. The format is physicochemical. Particulars: buffer.
Data set [4] concerns Rattus norvegicus. As to the kind of experiment: Effective dose to inhibit aldose reductase activity by normalizing the elevated lens sorbitol levels in sciatic nerve of chronically diabetic rat orally. The format is functional. Particulars: po.
Data set [5] is described as follows: Plasma t1/2 of compound was determined in diabetic rat. The format is ADME, organism-based.
Data set [6] concerns the target Aldo-keto reductase family 1 member B1 (Homo sapiens, UniProt P15121). The data set can be described thus: Inhibition of human recombinant Aldose reductase […].
Data set [7] in a line: Oral bioavailability in rat. The format is ADME, organism-based. Particulars: in vivo, read-out: Bioavailability_oral.
The nature of data set [8]: Maximum concentration of drug in plasma was determined at 2 mg/kg orally. The format is ADME, organism-based. Particulars: in vivo, po. Also on record: dose 2 mg/kg, route oral.
Data set [9] deals with Rattus norvegicus. The data set can be described thus: Effective dose to inhibit aldose reductase activity by normalizing the elevated lens fructose levels in sciatic nerve of chronically diabetic rat orally. Particulars: po. The format is functional.
The subject of data set [10] is Rattus norvegicus. As to the kind of experiment: Aldose reductase inhibition activity in vivo by normalizing the elevated nerve fructose levels in sciatic nerve of acutely diabetic rat at 20 mg/kg. The format is functional.
Data set [11] has as its system Rattus norvegicus. As to the kind of experiment: Aldose reductase inhibition activity in vivo by normalizing the elevated nerve sorbitol levels in sciatic nerve of acutely diabetic rat at 20 mg/kg. The format is functional.
Data set [12] concerns Rattus norvegicus. The data set can be described thus: Aldose reductase inhibition activity in vivo by normalizing the elevated nerve fructose levels in sciatic nerve of acutely diabetic rat at 10 mg/kg. The format is functional.
The test system of data set [13] is Rattus norvegicus. As to the kind of experiment: Aldose reductase inhibition activity in vivo by normalizing the elevated nerve sorbitol levels in sciatic nerve of acutely diabetic rat at 10 mg/kg. The format is functional.
The species named for data set [14] is Rattus norvegicus. As to the kind of experiment: Effective dose to inhibit aldose reductase activity by normalizing the elevated nerve fructose levels in sciatic nerve of chronically diabetic rat.
Data set [15] is filed under the species Rattus norvegicus. The data set can be described thus: Effective dose to inhibit aldose reductase activity by normalizing the elevated nerve sorbitol levels in sciatic nerve of chronically diabetic rat.
Data set [16] concerns Rattus norvegicus. The data set can be described thus: Aldose reductase inhibition activity in vivo by normalizing the elevated nerve sorbitol levels in sciatic nerve of acutely diabetic rat at 300 mg/kg. The format is functional.
Data set [17] has as its system Rattus norvegicus. The data set can be described thus: Aldose reductase inhibition activity in vivo by normalizing the elevated nerve fructose levels in sciatic nerve of acutely diabetic rat at 300 mg/kg. The format is functional.
Data set [18] is described as follows: pKa value of compound was determined. The format is physicochemical.
A short description of data set [19]: Dissociation constant was determined. The format is physicochemical.
In data set [20] the test system is Rattus norvegicus. The data set can be described thus: Aldose reductase inhibition activity in vivo by normalizing the elevated lens sorbitol levels in sciatic nerve of acutely diabetic rat at 20 mg/kg. Particulars: read-out: Inhibition.

Here are results for 16 molecules from ChEMBL document CHEMBL1145005 (J Med Chem, 2003).

`Cc1c(S(=O)(=O)c2ccc(=O)[nH]n2)oc2ccc(Cl)cc12`: the “Log P/Log D” value in [1] worked out at 0.81. The molecule further yielded a logP in [2] of 3.05. Also, the logD in data set [3] amounted to 2.46. The ED90 amounted to 0.8 mg/kg in [4] and 3 mg/kg in data set [9]. For the same molecule, in [5], the half-life is 26 h. Also, the IC50 in data set [6] stood at 0.84 nM. The bioavailability in data set [7] was found to be 98%. In data set [8], this molecule yielded a Cmax of 9000 ng/mL.

As for `O=c1ccc(S(=O)(=O)c2cc3ccccc3o2)n[nH]1`, the IC50 in [6] was 150 nM.

For the molecule `O=c1ccc(S(=O)(=O)c2ccc(Br)cc2F)n[nH]1`, the half-inhibitory concentration (IC50) in data set [6] is 140 nM.

In the case of `O=c1ccc(S(=O)(=O)c2cc3ccccc3[nH]2)n[nH]1`, the IC50 in [6] is 5000 nM.

For the molecule `Cc1ccc(S(=O)(=O)c2ccc(O)nn2)cc1`, in [6], the half-maximal inhibitory concentration (IC50) is 1900 nM.

In the case of `O=c1ccc(S(=O)(=O)c2ccccc2Cl)n[nH]1`, the inhibition in vivo at 20 mg/kg is 68% in data set [10] and 96% in [11]. In addition, the 50% inhibitory concentration (IC50) in data set [6] is 170 nM.

For the molecule `O=S(=O)(c1ccc(O)nn1)c1ccccc1-c1ccccc1`, the IC50 in [6] is 2200 nM.

As for `O=S(=O)(c1ccc(O)nn1)c1nc2ccccc2s1`, in data set [6], the IC50 worked out at 450 nM.

`O=c1ccc(S(=O)(=O)c2cc3ccccc3s2)n[nH]1`: in data set [6], the IC50 is 150 nM.

`O=c1ccc(S(=O)(=O)c2ccc(F)cc2Cl)n[nH]1`: the inhibition in vivo at 10 mg/kg in data set [12] worked out at 46%; in data set [13] it was 91%. The IC50 in data set [6] stood at 280 nM.

Turning to `O=c1ccc(S(=O)(=O)c2ccc(Cl)cc2Cl)n[nH]1`, the ED90 in data set [14] is 20 mg/kg; in data set [15], 5 mg/kg. Further, the inhibition in vivo at 10 mg/kg in data set [12] is 73%; in data set [13], 95%. The IC50 in data set [6] was 190 nM.

As to `O=c1ccc(S(=O)(=O)c2ccccc2Br)n[nH]1`, the concentration for half-maximal inhibition (IC50) in data set [6] stood at 210 nM.

Regarding `COc1ccc(S(=O)(=O)c2ccc(=O)[nH]n2)cc1`, in data set [6], the concentration for half-maximal inhibition (IC50) stood at 2000 nM.

On to `O=S(=O)(c1ccccc1)c1ccc(O)nn1`, for which the inhibition in vivo at 300 mg/kg in data set [16] is 95%; in data set [17], 89%. Also, in data set [6], the IC50 came to 600 nM. This molecule also returned a pKa in [18] of 7.1.

For the molecule `O=C1NC(=O)[C@@]2(CCOc3ccc(F)cc32)N1` [SORBINIL], in [19], the pKa was > 8.

With `O=C(O)Cc1nn(Cc2nc3cc(C(F)(F)F)ccc3s2)c(=O)c2ccccc12` [ZOPOLRESTAT], the inhibition in vivo at 20 mg/kg in data set [20] amounted to 41%. The values for the ED90 in [14] and in data set [15] were 40 mg/kg and 10 mg/kg, respectively. Moreover, the pKa in data set [18] turned out to be 3.
